The values below come from patent publication US20200179310A1, “COMPOSITIONS COMPRISING SALBUTAMOL SULPHATE” (MEXICHEM AMANCO HOLDING S.A. DE C.V., priority 2013, published 2020).

The data set can be described thus: Solubility of surfactants in liquid propellant (non-volatile residue of saturated supernatant). The format is physicochemical. The settings on record: for NVR result (quantity of dissolved surfactant in the propellant): equilibrated at 20° C., excess surfactant in 200 g liquid propellant. On the procedure:
The solubility of various surfactants in R-134a and R-152a was investigated. The solubility was investigated by adding an excess of the surfactant (around 2 grams) to 200 g of the liquid propellant in a pressurised vessel. The vessel was equilibrated at 20° C. for a period of a few hours before decanting a weighed sample of the saturated supernatant liquid propellant through a filter into a clean vessel. The propellant was slowly removed by evaporation and the residue taken up in a small quantity of dichloromethane. The dichloromethane containing the dissolved residue was transferred to a weighed platinum crucible and heated (up to around 100° C.) to remove the solvent. The weighed, solvent-free residue represented the quantity of dissolved surfactant in the propellant.

Regarding Span 80, the “NVR result (quantity of dissolved surfactant in the propellant)” value is listed as 0.07% (Refrigerant 134a (R-134a)) and 0.22% (Refrigerant 152a (R-152a)). Further, the Observation result (Refrigerant 152a (R-152a), 20° C.) was “Sunk to the bottom”. Besides, the “Solubility in R-152a in comparison with R134a” value (comparison of Table 1 values) is “significant increases in solubility”.
